# Measured values from patent US4654373A, “Pharmaceutical formulations containing coenzyme Q10 suitable for topic administration” (Italfarmaco S.A., priority 1982, dated 1987).
# Columns and labels:
# dental caries = assay: Dental caries in hamster fed by cariogenic diet; assay type: in vivo; conditions: 25 mg/kg on the dental gingival region
# pregnant Wistar rats = assay: Theratogenesis test, topical; conditions: topical on epilated and abraded skin, 50 mg/kg/die, seventh to fifteenth day of pregnancy
# Description: In order to evaluate if the administration by the topical route of Coenzyme Q10 could interfere on the normal ebryonal or phaetal development, a pharmaceutical composition of the invention corresponding to an amount of Coenzyme Q10 of 50 mg/kg/die was spread on the epilated and abraded skin of ten pregnant Wistar rats.
# The administration was carried out from the seventh to the fifteenth day of pregnancy.
# The main internal organs were also subjected to observation.
# New Zealand rabbits = assay: Acute toxicity by topical cutaneous route in rabbits; assay type: in vivo, New Zealand rabbit; conditions: 5 to 20 mg per cm^2 of depilated (intact or abraded) back, immediately and after 8 days
# Description: Similar experiences were carried out also on a group of 8 New Zealand rabbits of both sexes, having the back depilated. The cutis of 4 of these animals was also abraded.
# Two days after the depilation, the compositions of the invention, corresponding to doses of Coenzyme Q10 ranging from 5 to 20 mg per square centimeter of area of the depilated back, were spread on the cutis of the animals so prepared.
# [1] = oral route; cited from earlier work
# [2] = in excipients compatible with parenteral administration; cited from earlier work
# experimental burns = assay: Experimental burn in the rat; assay type: in vivo, male Wistar rat
# [3] = system: carrageenin oedema in the rat paw; assay: Carrageenin oedema test in rats; assay type: in vivo, male rat; conditions: topical, both formulations
# Description: To male rats weighing 220 g, fasted for 24 hours, 0.1 ml of 1% carrageenin suspension was injected into the plantar surface of a hind paw.
# The control group, consisting of 25 animals, was administered with the only carrageenin, two other groups, consisting each of 25 animals, were topically administered with Coenzyme Q10 in form of two different formulations, in peanut oil and olive oil respectively, before the carrageenin injection. The results were expressed by means of a plethysmograph, which measured the size of the oedema 4 hours after the carrageenin injection.
# [4] = Cutaneous concentration after topical administration (HPLC); assay type: in vivo, rat; conditions: topical 2 mg/cm^2, vegetal oils as solvents and excipients
# Description: Rats were cutaneously treated with 2 mg/cm^2 of skin of Coenzyme Q10 and the concentration was measured by the HPLC method. The results are listed in Table 3 for two different vehicles.
# [5] = Distribution after parenteral (intramuscular) administration (HPLC); assay type: in vivo, rat; conditions: intramuscular 20 mg/kg; for concentration at 0.5 h / concentration at 1 h / concentration at 6 h: rat, im; for concentration at 0.5 h: 30 min.; for concentration at 1 h: 60 min.
# Description: Rats were treated with 20 mg/kg of Coenzyme Q10 by intramuscular injection and the concentration of the active compound was determined by HPLC after 30 min., 60 min. and 6 hours.
# [6] = Cutaneous absorption of Coenzyme Q10 in the rat; assay type: in vivo, male Wistar rat; conditions: topical, 5 mg/kg/cm^2 of skin
# Description: In order to evaluate the cutaneous absorption of Coenzyme Q10 after its application on the skin a group of male Wistar rats of the average weight of 280 g was used. The animals were epilated on the back and a composition corresponding to a dose of Coenzyme Q10 of 5 mg/kg/cm^2 of skin was applied on the epilated back.
# Samples of skin were then removed both from treated and untreated animals at intervals of 1, 3, 6 and 24 hours from treatment. The skin, together with the removed subcutaneous tissue, was homogenized and kept at -20° C. till the moment of analysis.
# Samples of 5 g each of tissue were saponified in the presence of pyrogallole.
# The fraction containing Coenzyme Q10 and other neutral fats was extracted with hydrocarbon solvents and purified chromatographically on column.
# The spectrophotometric measurement was performed according to the method described by Linn B. O., Page A. C., Wong E. L., Gale, P. H., Shunk C. H., Folkers K. [J. Am. Chem. Soc., 81, 4007 (1959)].
# male Wistar rats = assay: Chronic toxicity, topical, 60 days, rats; conditions: 50 mg/kg/die, daily for 60 days
# Description: (§1) These tests were carried out by administering locally on the skin of two groups of 30 male Wistar rats and of 6 male New Zealand rabbits with the skin epilated, the skin of one group being epilated and abraded, a pharmaceutical composition for a total amount of 50 mg/kg/die of Coenzyme Q10.
# (§2) The administration went on daily for 60 consecutive days.
# (§3) Before the start of the treatment and at the end all the animals were subjected to a series of controls and examinations regarding the ponderal increase, red-cells and white cells count, haemoglobin concentration in the blood, glycemia, azotemia, transaminases and blood total proteins. The urinary elimination was also tested. At the end of treatment all the animals were killed and accurate anatomopathological and histopathological examinations were performed on each animal with particular regard to the zones of treated skin.
# [7] = cited from earlier work
# holes in rabbits' ears = assay: Tissular regeneration and healing of holes in rabbits' ears; assay type: in vivo, New Zealand rabbit; conditions: topical composition, 5 mg/cc, versus not treated rabbits
# male New Zealand rabbits = assay: Chronic toxicity, topical, 60 days, rabbits; conditions: 50 mg/kg/die, daily for 60 days
# Description: as §1, §2, §3
# Wistar rats = assay: Acute toxicity by topical cutaneous route in rats; assay type: in vivo, Wistar rat; conditions: 5 mg up to 20 mg per cm^2 of depilated (intact or abraded) skin, immediate and eight days after treatment
# Description: To assess the toxicity of the product administered by the topical cutaneous route, two groups of forty Wistar rats of both sexes in the same number, carefully depilated on the back, were used.
# To a group of these rats, the depilated skin was also abraded. On the cutis so prepared after two days the compositions of the invention containing increasing amounts of Coenzyme Q10 in the ratio of 5 mg up to 20 mg for each square centimeter of depilated skin, were spread for each group of ten rats.
# [8] = system: dithranol (anthralin) induced inflammatory reaction; assay: Test of dithranol induced cutaneous inflammation; assay type: in vivo, male Guinea pig; conditions: topical 2 mg/cm^2 cutis, both in peanut and soybean oil, 48 hours
# Description: Male Guinea pigs, weighing 330 g, were epilated at the back and, 24 hours after that, 20 mg of dithranol (anthralin) was intradermically injected into symmetric areas of the back.
# Coenzyme Q10 dissolved in peanut and soybean oil was spread on the backs of the animals under test, at the dosage of 2 mg/cm^2 cutis, whereas the control group of animals was subjected to no treatment.
# The treated area was covered with Nescofilm and bound up with Micropore.
# 48 Hours after the administration of the inflammatory agent, the size of the induced inflammatory area was evaluated.
# [9] = Distribution after oral administration (HPLC); assay type: in vivo, rat; conditions: oral 50 mg/kg; for concentration at 0.5 h / concentration at 1 h / concentration at 6 h: rat; for concentration at 0.5 h: 30 min.; for concentration at 1 h: 60 min.
# Description: Rats were treated with 50 mg/kg of Coenzyme Q10 by oral route and the concentration of the active principle was determined by using the HPLC method in several organs after 30 min., 60 min. and 6 hours.
# [10] = Cutaneous absorption in volunteers; assay type: in vivo, human (health volunteers); conditions: human, skin, topical or ocular, 1 mg/cm^2, corneous layer removed, read-out: mean percent absorption
# Description: For these tests the method described by Tauber and al. [Arzneimittel Forschung, 26, N7b, 1492 (1976)].
# On 4 health volunteers, areas of about 30 cm^2 of skin whose corneous layer had been removed, were spread with a composition corresponding to 1 mg/cm^2 of Coenzyme Q10.
# Immediately after the application and after 24 hours from the application on the skin, the composition not absorbed was removed by cotton-wool and the cotton-wool used for the removal was extracted with chloroform/ethanol.
# After saponification in presence of pyrogallole the fraction containing Coenzyme Q10 and other neutral fact was extracted with hydrocarbon solvents and purified chromatographically on column.
# The spectrophotometric measure was carried out according to the method described by Linn and al. [J. Am. Chem. Soc., 81, 4007 (1959)].
# [11] = heart, read-out: Mean tissutal concentration
# [12] = kidney, read-out: Mean tissutal concentration
# [13] = liver, read-out: Mean tissutal concentration
# [14] = plasma, read-out: Mean plasmatic concentration
# [15] = oral 50-100 mg/dosage (100-200 mg pro die)
smiles,measurement,setting,value
"COC1=C(OC)C(=O)C(CC=C(C)CCC=C(C)CCC=C(C)CCC=C(C)CCC=C(C)CCC=C(C)CCC=C(C)CCC=C(C)CCC=C(C)CCC=C(C)C)=C(C)C1=O [Coenzyme Q10, 2,3-dimethoxy-5-methyl-6-decaprenyl-benzoquinone]",treated animals in which onset of dental caries is prevented,dental caries,more than 50%
same,alteration or malformation of phoetuses,pregnant Wistar rats,no alteration or malformation was noticed
same,mortality or clear toxicity,New Zealand rabbits,"neither immediately after the administration nor after 8 days, mortality cases or clear toxicity were noticed"
same,LD50,[1],higher than 4 g/kg
same,solubility (in words),[2],very low solubility
same,seriousness of the lesions (in words),"experimental burns; preventive topical application, 1-2 mg/cm^2 of skin",decreased in fact the seriousness of the lesions
same,protective effect on experimental burn (in words),experimental burns; topical route,protective effect
same,reduction of the seriousness of the burn (Blue Evans),"experimental burns; treated daily, 1-2 mg/cm^2 of skin, 4 consecutive days preceding burn induction",more than 50%
same,seriousness of the burn versus control rats (Blue Evans),experimental burns; treated only once half an hour before burn induction,not significantly different
same,carrageenin oedema inhibition (in words),[3],partially inhibited
same,concentration at the cutis level (in words),[4],A good increase
same,cutaneous concentration (in words),[5],no concentration in the cutis is present at any time
same,concentration at 0.5 h,[5]; [11],10500 ng/g
same,concentration at 1 h,[5]; [11],14300 ng/g
same,concentration at 6 h,[5]; [11],16200 ng/g
same,concentration at 0.5 h,[5]; [12],9500 ng/g
same,concentration at 1 h,[5]; [12],11500 ng/g
same,concentration at 6 h,[5]; [12],10200 ng/g
same,concentration at 0.5 h,[5]; [13],11700 ng/g
same,concentration at 1 h,[5]; [13],12600 ng/g
same,concentration at 6 h,[5]; [13],14400 ng/g
same,concentration at 0.5 h,[5]; [14],270 ng/mL
same,concentration at 1 h,[5]; [14],940 ng/mL
same,concentration at 6 h,[5]; [14],800 ng/mL
same,time of highest concentrations in cutaneous tissue,[6],from the third to the sixth hour after the administration
same,biological parameters versus untreated controls,male Wistar rats,"did not show, in comparison with the untreated control animals, any significative difference in the different biological parameters considered"
same,histological examination of the skin,male Wistar rats,did not show any pathological change
same,clinical results (in words),[7]; [15],satisfactory clinical results
same,side-effects (in words),[7]; [15],"increases, sometimes intolerably, the side-effects of the drug"
same,change in Coenzyme Q10 in peripheral tissues (in words),[7]; oral administration of high doses,no changes in Coenzyme Q10 are detectable
same,tissular regeneration and healing processes,holes in rabbits' ears,much faster than in the not treated rabbits
same,biological parameters versus untreated controls,male New Zealand rabbits,"did not show, in comparison with the untreated control animals, any significative difference in the different biological parameters considered"
same,histological examination of the skin,male New Zealand rabbits,did not show any pathological change
same,"mortality, toxic effect or intolerance",Wistar rats,"did not show the appearance of any mortality cases, toxic effect or intolerance"
same,decrease of inflammatory areas with respect to non-treated animals,[8],50%
same,cutaneous concentration (in words),[9],no appreciable appearance of cutaneous concentration
same,heart concentration change (in words),[9],substantial changes occur at the heart level
same,plasmatic concentration change (in words),[9],negligeable
same,concentration at 0.5 h,[9]; [11],7100 ng/g
same,concentration at 1 h,[9]; [11],12300 ng/g
same,concentration at 6 h,[9]; [11],14700 ng/g
same,concentration at 0.5 h,[9]; [12],6500 ng/g
same,concentration at 1 h,[9]; [12],10100 ng/g
same,concentration at 6 h,[9]; [12],15600 ng/g
same,concentration at 0.5 h,[9]; [13],4100 ng/g
same,concentration at 1 h,[9]; [13],7100 ng/g
same,concentration at 6 h,[9]; [13],9800 ng/g
same,concentration at 0.5 h,[9]; [14],170 ng/mL
same,concentration at 1 h,[9]; [14],190 ng/mL
same,concentration at 6 h,[9]; [14],2700 ng/mL
same,Fa at 24 h,[10],18.5 ± 6.2%
